Drawing on US7674899B2, “Dimeric azacyclic compounds and their use” (Neurosearch A/S, priority 2004, dated 2010), this text covers IC50 for one molecule.

The structures appear in SMILES notation. Structures can show the parent of a compound that is named as a salt.

This assay deals with T1, α7-subtype of nicotinic receptors (Rattus norvegicus, UniProt Q05941).
T1 construct: Cerebral cortices from male Wistar rats (150-250 g) are homogenised; from tissue; host or cells: rat cerebral cortex membrane homogenate
T1 sequence (Q05941 23-502): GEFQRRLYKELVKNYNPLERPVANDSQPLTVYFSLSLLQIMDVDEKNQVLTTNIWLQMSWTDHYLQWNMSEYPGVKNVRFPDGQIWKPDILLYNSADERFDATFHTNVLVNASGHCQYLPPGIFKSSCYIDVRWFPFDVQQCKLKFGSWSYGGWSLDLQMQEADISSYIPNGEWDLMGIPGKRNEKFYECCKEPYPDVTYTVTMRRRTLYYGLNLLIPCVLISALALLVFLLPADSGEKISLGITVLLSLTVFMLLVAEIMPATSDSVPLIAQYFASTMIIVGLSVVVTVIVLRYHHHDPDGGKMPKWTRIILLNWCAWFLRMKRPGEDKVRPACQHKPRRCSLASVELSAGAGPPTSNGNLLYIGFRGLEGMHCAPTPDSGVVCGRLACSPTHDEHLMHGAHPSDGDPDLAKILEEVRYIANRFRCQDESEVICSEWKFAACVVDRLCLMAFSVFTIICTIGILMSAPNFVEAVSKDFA
Kind of assay: In vitro inhibition of 3H-α-bungarotoxine binding in rat brain. The note with it: rat cerebral cortex homogenate; 2 nM 3H-α-bungarotoxine; 2 hours at 37° C.

The molecule `c1nc(OC2CN3CCC2CC3)sc1-c1cnc(OC2CN3CCC2CC3)s1` (racemic) [Compound A1, 2,2′-Bis-((±)-1-aza-bicyclo[2.2.2]oct-3-yloxy)-[5,5′]-bithiazolyl fumaric acid salt] returned an IC50 of 200 nM.
